Results as given in doi:10.1101/404459v1 (biorxiv, 2018).

Experiments:
PbCLK3 = molecular target: T1, PbCLK3 (Plasmodium berghei, UniProt A0A509AKE9); test: TR-FRET kinase assay; format: biochemical; details: recombinant kinase
T1 sequence (A0A509AKE9 1-706): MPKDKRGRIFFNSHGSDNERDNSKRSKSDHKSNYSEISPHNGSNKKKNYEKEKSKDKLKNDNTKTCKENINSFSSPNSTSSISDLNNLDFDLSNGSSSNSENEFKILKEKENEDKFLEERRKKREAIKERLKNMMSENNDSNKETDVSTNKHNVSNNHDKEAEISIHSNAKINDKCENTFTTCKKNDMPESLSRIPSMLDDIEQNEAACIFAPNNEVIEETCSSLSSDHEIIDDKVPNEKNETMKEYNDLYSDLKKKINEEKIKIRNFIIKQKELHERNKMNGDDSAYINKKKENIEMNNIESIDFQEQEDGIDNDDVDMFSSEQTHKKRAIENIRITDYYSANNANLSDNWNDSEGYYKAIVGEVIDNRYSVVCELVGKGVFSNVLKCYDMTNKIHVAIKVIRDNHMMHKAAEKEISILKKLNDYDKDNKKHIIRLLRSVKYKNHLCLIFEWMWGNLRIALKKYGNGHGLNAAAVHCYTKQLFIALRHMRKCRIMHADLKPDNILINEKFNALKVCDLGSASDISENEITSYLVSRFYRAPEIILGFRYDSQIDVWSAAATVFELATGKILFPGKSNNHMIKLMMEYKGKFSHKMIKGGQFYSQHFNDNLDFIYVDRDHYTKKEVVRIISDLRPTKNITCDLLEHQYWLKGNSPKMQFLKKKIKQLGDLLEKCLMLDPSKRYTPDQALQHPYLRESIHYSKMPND

PvCLK3 = test: TR-FRET kinase assay; format: biochemical, Plasmodium vivax; details: recombinant kinase
purified protein = substrate: Nc1ncnc2c1ncn2[C@@H]1O[C@H](COP(=O)(O)OP(=O)(O)OP(=O)(O)O)[C@@H](O)[C@H]1O; test: purified protein; details: co-substrate ULight-CREBtide; pH […]; […] MgCl2; room temperature

Molecule: CCN(CC)Cc1ccc(OC)c(-c2cc3c(-c4ccc(C(=O)O)c(C(C)C)c4)ccnc3[nH]2)c1 [TCMDC-135051]
- pIC50 (PbCLK3): 7.47 ± 0.12
- pIC50 (PvCLK3): 7.86 ± 0.10

B1: PfCLK1 (Plasmodium falciparum 3D7) (protein)
chain: DDEIVHFSWKKGMLLNNAFLVIRKMGDGTFGRVLLCQHIDNKKYYAVKVVRNIKKYTRSAKIEADILKKIQNDDINNNNIVKYHGKFMYYDHMCLIFEPLGPSLYEIITRNNYNGFHIEDIKLYCIEILKALNYLRKMSLTHTDLKPENILLDDPYFEKSLITVRRVTDGKKIQIYRTKSTGIKLIDFGCATFKSDYHGSIINTRQYRAPEVILNLGWDVSSDMWSFGCVLAELYTGSLLFRTHEHMEHLAMMESIIQPIPKNMLYEATKTNGSKYVNKDELKLAWPENASSINSIKHVKKCLPLYKIIKHELFCDFLYSILQIDPTLRPSPAELLKHKFLE
- Km (purified protein): 30 µM
